Measurements published in patent US20140045908A1, “HSP90 INHIBITORY COMPOUNDS IN TREATING JAK/STAT SIGNALING-MEDIATED CANCERS” (SYNTA PHARMACEUTICALS CORP., priority 2011, published 2014).

Legend:
[1] = test system: JAK/STAT signaling in SET-2 cells; assay: Western blot of JAK/STAT signaling in SET-2 cells; format: cell-based, human; settings: 24 h
Protocol: SET-2 cells were dosed with the indicated concentrations of ganetespib or 17-AAG for 24 h and analyzed to determine JAK/STAT protein and target levels using the antibodies indicated.
(§1) Cells were disrupted in lysis buffer (CST) and solubilized in 2% SDS. Xenograft tumors (average volume of 100-200 mm3) were excised, cut in half, and flash frozen in liquid nitrogen. Each tumor fragment was lysed in 0.5 mL of lysis buffer using a FastPrep-24 homogenizer and Lysing Matrix A (MP Biomedicals, Solon, Ohio, USA) and lysates clarified by centrifugation. Equal amounts of proteins were resolved by SDS-PAGE and immunoblotted with indicated antibodies. The antigen-antibody complex was visualized and quantitated using an Odyssey system (LI-COR, Lincoln, Nebr., USA).

[2] = test system: HEL92.1.7 cells (JAK2V617F); assay: HEL92.1.7 disseminated (orthotopic) leukemia survival model; format: in vivo
Protocol: Beginning 1 day after tumor cell implantation, ganetespib was i.v. dosed at its HNSTD (25 mg/kg) on a five-times per week schedule for 3 weeks through day 19 ([…]). *P<0.0001; 2-sided log-rank test.
Eight-week-old female immunodeficient CB-17/Icr-Prkdcscid/Crl (SCID) mice (Charles River Laboratories, Wilmington, Mass.) were maintained in a pathogen-free environment, and all in vivo procedures were approved by the Synta Pharmaceuticals Corp. Institutional Animal Care and Use Committee. For the MV4-11 model, tumor cells were subcutaneously implanted in SCID mice as previously described (34). Tumor volumes (V) were calculated by caliper measurements of the width (W), length (L), and thickness (T) of each tumor using the formula: V=0.5236 (LWT).
For the HEL92.1.7 model, SCID mice were i.v. injected via the tail vein with 5×10^6 cells in phosphate-buffered saline (PBS) on day 0. Implanted animals were then randomized into groups of 10 and i.v. dosed via the tail vein at 10 mL/kg body weight with either vehicle or ganetespib formulated in 10/18 DRD. Animals were weighed daily and removed from the study at the first sign of hind limb paralysis, which occurred in 100% of vehicle-treated animals. Median overall survival was estimated using the Kaplan-Meier method and the log-rank test (2-sided) for statistical significance. Tumor cells were identified as either CD44- or CD54-positive cells within the CD45-negative population. Spinal column tumor burden was determined by quantitative image analysis with ImageJ software (Wayne Rasband, National Institute of Mental Health) of hematoxylin and eosin stained tissue sections.
(§2) For both models, studies were conducted at the highest non-severely toxic doses (NHSTDs) of 150 mg/kg ganetespib one-time per week or 25 mg/kg ganetespib 5×/week for 3 weeks based on prior tolerability studies conducted in non-tumor bearing mice.

[3] = test system: phospho-STAT5 and Cdk1 in MV4-11 tumors; assay: Pharmacodynamic analysis of MV4-11 xenograft tumors (western blot); format: in vivo, SCID mice
Protocol: SCID mice bearing MV4-11 tumors (n=4 mice/group) were treated with vehicle or ganetespib at either 25 mg/kg or 150 mg/kg at the indicated time points between 6 h and 144 h (6 days). Tumors were resected and the levels of p-STATS, Cdk1, Hsp70 and GAPDH were determined by western blot.
as §1
To determine whether these tumor responses correlated with target modulation in vivo, additional mice bearing MV4-11 xenografts were treated with a single dose of vehicle alone or ganetespib at 25 or 150 mg/kg. Tumors were harvested between 6 and 144 hours later and pharmacodynamic analysis was performed by examining the expression levels of phospho-STAT5, Cdk1 and Hsp70 (FIG. 17). In accord with the in vivo tumor growth data, dose-dependent effects on the duration of target inhibition within the tumors were observed. […] While the relatively quick recovery of STAT5 activation should have allowed the tumor to restart growth, the more durable suppression of the cell cycle regulators appeared to have kept the growth of the tumors arrested until the next drug dosing.

HEL92.1.7 cells = assay: Cell viability assay (AlamarBlue, 72 h); format: cell-based, human
Protocol: (§3) All cell lines were obtained from the ATCC (Rockville, Md., USA), with the exception of SET-2 cells which were purchased from the German Collection of Microorganisms and Cell Cultures (DSMZ, Germany). Cells were maintained and cultured according to standard techniques at 37° C. in 5% (v/v) CO2 using culture medium recommended by the supplier.
(§4) Cells were grown in 96-well plates based on optimal growth rates determined empirically for each line. Twenty-four hours after plating, cells were dosed with the indicated compound or DMSO (0.3%) for 72 h. AlamarBlue (Invitrogen, Carlsbad, Calif., USA) was added (10% v/v) to the cells, and the plates were incubated for 3 h and subjected to fluorescence detection (Ex=545 nm, Em=600 nm) in a SpectraMax Plus 384 microplate reader (Molecular Devices, Sunnyvale, Calif., USA). Data are normalized to percent of control, with IC50 values based on a four-parameter logistic dose response curve (model 205) using XLfit version 5.1 from IDBS (Guildford, U.K.).

MV4-11 cells = assay: Cell viability assay (AlamarBlue, 72 h); format: cell-based, human
Protocol: as §3, §4

DU145 cells = assay: Cell viability assay (AlamarBlue, 72 h); format: cell-based, human
Protocol: as §3, §4

SET-2 cells = assay: Cell viability assay (AlamarBlue, 72 h); format: cell-based, human
Protocol: as §3, §4

[4] = test system: JAK2/STAT signaling in NCI-H1975 cells; assay: Western blot of JAK/STAT and Hsp90 client proteins in NCI-H1975 cells; format: cell-based, human; settings: 24 h
Protocol: NCI-H1975 cells were dosed with the indicated concentrations of ganetespib for 24 h and their cell lysates analyzed to determine JAK/STAT and Hsp90 client protein levels using the antibodies indicated.
as §1

[5] = test system: JAK2 dependent signaling in HEL92.1.7 cells; assay: Western blot of JAK/STAT signaling in HEL92.1.7 cells; format: cell-based, human
Protocol: FIG. 2 compares the more durable ganetespib durable inhibition of JAK/STAT signaling to P6. HEL92.1.7 cells were cultured in the presence of 250 nM Ganetespib or 1000 nM P6 and harvested at the indicated time points. The levels of JAK2, phosphorylated and total STAT3 and STAT5, phospho-AKT, phospho-ERK and GAPDH were determined by western blot.
as §1

[6] = Tolerability studies in non-tumor bearing mice; format: in vivo; settings: i.v.
Protocol: as §2

CC(C)c1cc(-c2nnc(O)n2-c2ccc3c(ccn3C)c2)c(O)cc1O [ganetespib, 3-(2,4-dihydroxy-5-isopropyl-phenyl)-4-(1-methyl-indol-5-yl)-5-hydroxy-[1,2,4] triazole]
concentration able to destabilize JAK2 sufficiently to result in loss of activated (phosphorylated) STAT3 and STAT5 expression [1]: 50 nM
tumor cell burden in bone marrow and spinal cord (histological analysis) ([2]; 25 mg/kg i.v. 5×/week): dramatically decreased tumor cell burden
median overall survival ([2]; 25 mg/kg i.v. 5×/week through day 19, SCID mice): 76.5 days
body weight (tolerability) ([2]; 25 mg/kg i.v. 5×/week, after 3 weeks of dosing): no significant loss of body weight
time by which STAT5 activity recovered in tumors ([3]; single 25 mg/kg dose): ≤ 24 h
time of loss of Cdk1 in tumors ([3]; single 25 mg/kg dose): 24 h
time through which Cdk1 expression remained suppressed in tumors ([3]; single 25 mg/kg dose): at least 48 hours
time to potent inhibition of STAT5 activity in tumors ([3]; single 25 mg/kg dose): ≤ 6 h
duration of repressed STAT5 activation and suppressed Cdk1 expression in tumors ([3]; single 150 mg/kg dose): more than three days
fold more potent than 17-AAG, cell viability (HEL92.1.7 cells; 72 h): greater than 100 fold
IC50 (HEL92.1.7 cells; Homo sapiens, HEL 92.1.7, 72 h, Alamar blue, read-out: IC50, loss of cellular viability): 0.02 µM
sensitivity of cells in vitro (MV4-11 cells): highly sensitive
induction of cell death (DU145 cells): potent inducer of cell death
fold more potent than 17-AAG, cell viability (SET-2 cells): greater than 100 fold
AKT and GSK3β activity [4]: Inactivation of AKT and GSK3β
EGFR expression [4]: dose dependent decrease in EGFR expression
JAK2 and phosphorylated STAT3 levels [4]: potent degradation of JAK2 and loss of phosphorylated STAT3 in a dose-dependent manner
levels of phosphorylated BAD [4]: concomitant reduction in the levels of phosphorylated BAD
JAK2 and phospho-AKT protein levels [5]: targeted loss of JAK2 and phospho-AKT protein levels
duration of STAT signaling suppression compared to P6 [5]: suppressed STAT signaling longer
potency compared to P6, JAK/STAT inhibitory activity [5]: at least four-fold more potent
JAK2 dependent signaling (phospho-STAT3, phospho-STAT5, ERK signaling) ([5]; 250 nM ganetespib or 1000 nM P6): blocked JAK2 dependent signaling
highest non-severely toxic dose ([6]; 5×/week for 3 weeks): 25 mg/kg
highest non-severely toxic dose ([6]; one-time per week for 3 weeks): 150 mg/kg
